According to patent US20260256792A1, “TREATMENT OF CHRONIC SPONTANEOUS URTICARIA BY ADMINISTERING (R)-2-[3-[4-AMINO-3-(2-FLUORO-4-PHENOXY-PHENYL)PYRAZOLO[3,4-D]PYRIMIDIN-1-YL]PIPERIDINE-1-CARBONYL]-4-METHYL-4-[4-(OXETAN-3-YL)PIPERAZIN-1-YL]PENT-2-ENENITRILE” (priority 2023, published 2026):

Tested on: moderate-to-severe chronic spontaneous urticaria (CSU)
Assay: Phase 2 CSU study: urticaria activity score over 7 days (UAS7)
Type: in vivo, human
Conditions: ITT, 400 mg BID
Excerpt: The study comprises a 12 week, randomized, double-blind, placebo-controlled, multi-center, dose-ranging efficacy and safety phase, followed by a 40 week open label extension (OLE) phase (see FIG. 1). The study consists of three phases and an optional OLE phase. […] Clinically, CSU is characterized by the spontaneous and recurrent appearance of pruritic hives. The proposed primary endpoints were the UAS7 at Week 12 in EU and EU reference countries and the ISS7 in the US. Regardless of where a participant was from, all assessments were the same. The UAS7 score is a composite score containing both the HSS7 and the ISS7. This allowed a global assessment of the two key components of urticaria: hives and itch. […] The UAS is a validated PRO measure. […] The daily UAS scores range from 0 to 6 point/day. […] Patients were to complete the UAS using the e-diary. […] The following secondary endpoints were to be analyzed using the same approach as for the primary endpoint: • Change from baseline in UAS7 at Week 4 • Change from baseline in UAS7 at Week 12 (for US and US reference countries) • Change from baseline in ISS7 at Week 12 (except US and US reference countries) • Change from baseline in HSS7 at Week 12 The following responder secondary endpoints were to be analyzed using the Cochran-Mantel-Haenszel test adjusted by region: • Proportion of participants with UAS7<6 at Week 12 • Proportion of participants with UAS7=0 at Week 12 Participants who received selected prohibited medications and/or rescue medications were to be considered as non-responders for time points after the medication usage. For other participants, all available data including those collected during the off-treatment period were to be used to determine the responder/non-responder status. Missing data were to be considered as non-responders.

What does the source list for CC(C)(C=C(C#N)C(=O)N1CCC[C@@H](n2nc(-c3ccc(Oc4ccccc4)cc3F)c3c(N)ncnc32)C1)N1CCN(C2COC2)CC1 [rilzabrutinib, (R)-2-[3-[4-amino-3-(2-fluoro-4-phenoxy-phenyl)pyrazolo[3,4-d]pyrimidin-1-yl]piperidine-1-carbonyl]-4-methyl-4-[4-(oxetan-3-yl)piperazin-1-yl]pent-2-enenitrile]?
OR for rilzabrutinib vs. placebo, UAS7 ≤6 (Week 4): 2.948; RRD (%) for rilzabrutinib vs. placebo, UAS7 = 0 (Week 4): 1.3 %; RRD (%) for rilzabrutinib vs. placebo, UAS7 ≤6 (Week 4): 16.7 %; Responder n (%), UAS7 = 0 (Week 4): 3 (7.3) n (%); Responder n (%), UAS7 ≤6 (Week 4): 13 (31.7) n (%); Imputed non-responder n (%), UAS7 = 0 (Week 5): 5 (12.2) n (%); Imputed non-responder n (%), UAS7 ≤6 (Week 5): 5 (12.2) n (%); Non-responder n (%), UAS7 = 0 (Week 5): 35 (85.4) n (%); Non-responder n (%), UAS7 ≤6 (Week 5): 28 (68.3) n (%); OR for rilzabrutinib vs. placebo, UAS7 = 0 (Week 5): 6.024; OR for rilzabrutinib vs. placebo, UAS7 ≤6 (Week 5): 8.203; RRD (%) for rilzabrutinib vs. placebo, UAS7 ≤6 (Week 5): 24.3 %; Responder n (%), UAS7 = 0 (Week 5): 6 (14.6) n (%); Responder n (%), UAS7 ≤6 (Week 5): 13 (31.7) n (%); Imputed non-responder n (%), UAS7 = 0 (Week 6): 4 (9.8) n (%); Imputed non-responder n (%), UAS7 ≤6 (Week 6): 4 (9.8) n (%); Non-responder n (%), UAS7 = 0 (Week 6): 36 (87.8) n (%); Non-responder n (%), UAS7 ≤6 (Week 6): 29 (70.7) n (%); OR for rilzabrutinib vs. placebo, UAS7 = 0 (Week 6): 4.821; OR for rilzabrutinib vs. placebo, UAS7 ≤6 (Week 6): 2.329; RRD (%) for rilzabrutinib vs. placebo, UAS7 = 0 (Week 6): 8.4 %; RRD (%) for rilzabrutinib vs. placebo, UAS7 ≤6 (Week 6): 13.6 %; Responder n (%), UAS7 = 0 (Week 6): 5 (12.2) n (%); Responder n (%), UAS7 ≤6 (Week 6): 12 (29.3) n (%); Imputed non-responder n (%), UAS7 = 0 (Week 7): 4 (9.8) n (%); Imputed non-responder n (%), UAS7 ≤6 (Week 7): 4 (9.8) n (%); Non-responder n (%), UAS7 = 0 (Week 7): 35 (85.4) n (%); Non-responder n (%), UAS7 ≤6 (Week 7): 29 (70.7) n (%); OR for rilzabrutinib vs. placebo, UAS7 = 0 (Week 7): 6.024; OR for rilzabrutinib vs. placebo, UAS7 ≤6 (Week 7): 3.425; RRD (%) for rilzabrutinib vs. placebo, UAS7 ≤6 (Week 7): 17.8 %; Responder n (%), UAS7 = 0 (Week 7): 6 (14.6) n (%); Responder n (%), UAS7 ≤6 (Week 7): 12 (29.3) n (%); Imputed non-responder n (%), UAS7 = 0 (Week 8): 5 (12.2) n (%); Imputed non-responder n (%), UAS7 ≤6 (Week 8): 5 (12.2) n (%); Non-responder n (%), UAS7 = 0 (Week 8): 33 (80.5) n (%); Non-responder n (%), UAS7 ≤6 (Week 8): 25 (61.0) n (%); OR for rilzabrutinib vs. placebo, UAS7 = 0 (Week 8): 4.083; OR for rilzabrutinib vs. placebo, UAS7 ≤6 (Week 8): 3.297; RRD (%) for rilzabrutinib vs. placebo, UAS7 = 0 (Week 8): 13.4 %; RRD (%) for rilzabrutinib vs. placebo, UAS7 ≤6 (Week 8): 21.8 %; Responder n (%), UAS7 = 0 (Week 8): 8 (19.5) n (%); Responder n (%), UAS7 ≤6 (Week 8): 16 (39.0) n (%); Imputed non-responder n (%), UAS7 = 0 (Week 9): 9 (22.0) n (%); Imputed non-responder n (%), UAS7 ≤6 (Week 9): 9 (22.0) n (%); Non-responder n (%), UAS7 = 0 (Week 9): 33 (80.5) n (%); Non-responder n (%), UAS7 ≤6 (Week 9): 28 (68.3) n (%); OR for rilzabrutinib vs. placebo, UAS7 = 0 (Week 9): 2.914; OR for rilzabrutinib vs. placebo, UAS7 ≤6 (Week 9): 3.540; RRD (%) for rilzabrutinib vs. placebo, UAS7 = 0 (Week 9): 11.3 %; RRD (%) for rilzabrutinib vs. placebo, UAS7 ≤6 (Week 9): 19.4 %; Responder n (%), UAS7 = 0 (Week 9): 8 (19.5) n (%); Responder n (%), UAS7 ≤6 (Week 9): 13 (31.7) n (%); Imputed non-responder n (%), UAS7 = 0 (Week 10): 10 (24.4) n (%); Imputed non-responder n (%), UAS7 ≤6 (Week 10): 10 (24.4) n (%); Non-responder n (%), UAS7 = 0 (Week 10): 32 (78.0) n (%); Non-responder n (%), UAS7 ≤6 (Week 10): 29 (70.7) n (%); OR for rilzabrutinib vs. placebo, UAS7 = 0 (Week 10): 2.322; OR for rilzabrutinib vs. placebo, UAS7 ≤6 (Week 10): 1.699; RRD (%) for rilzabrutinib vs. placebo, UAS7 = 0 (Week 10): 10.9 %; RRD (%) for rilzabrutinib vs. placebo, UAS7 ≤6 (Week 10): 8.6 %; Responder n (%), UAS7 = 0 (Week 10): 9 (22.0) n (%); Responder n (%), UAS7 ≤6 (Week 10): 12 (29.3) n (%); Imputed non-responder n (%), UAS7 = 0 (Week 11): 9 (22.0) n (%); Imputed non-responder n (%), UAS7 ≤6 (Week 11): 9 (22.0) n (%); Non-responder n (%), UAS7 = 0 (Week 11): 35 (85.4) n (%)
